Legend:
[1] = target: hT2R64 (Homo sapiens (Human), UniProt P59538); experiment: hT2R panel inhibition, transient HEK293 G16g44, agonist Aristolochic Acid 1 μM; type: cell-based; details: HEK293, compound at 25 μM; receptor activated to EC80 with the corresponding agonist; read-out: screening result against bitter receptor 64
Outline: (§1)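 Cells stably bearing the promiscuous G protein received one human T2R each by transient transfection and were assayed functionally. Ligands used at EC80; the test compound's inhibition equals the lowered activity.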

[2] = target: hT2R61 (Homo sapiens (Human), UniProt P59537); experiment: hT2R panel inhibition, transient HEK293 G16g44, agonist Aristolochic Acid 25 nM; type: cell-based; details: HEK293, compound at 25 μM; receptor activated to EC80 with the corresponding agonist; read-out: screening result against bitter receptor 61
Outline: as §1

[3] = target: hT2R4 (Homo sapiens (Human), UniProt Q9NYW5); experiment: hT2R panel inhibition, transient HEK293 G16g44, agonist Chloroquine pH6.5 5 mM; type: cell-based; details: HEK293, compound at 25 μM; receptor activated to EC80 with the corresponding agonist; class symbols; read-out: screening result against bitter receptor 4
Experimental: Specifically, in order to evaluate the inhibitory selectivity of the Compound C compound, this compound was tested against 22 human T2Rs which were deorphaned by Senomyx. These receptors and the bitter ligands that activate these human T2Rs are reported in earlier patent applications which are incorporated by reference herein. These 22 human T2Rs are hT2R1, 3, 4, 5, 7, 8, 9, 10, 13, 14, 16, 44, 51, 54, 55, 61, 63, 64, 65, 67, 71 and 75. The amino acid and nucleic acid sequences of all of these T2Rs may be found in these earlier patent applications. These human T2Rs were each individually transiently transfected into HEK293 cells that stably express the promiscuous G protein G16g44 and functional assays were effected using these receptors as disclosed in these same patent applications. […] The ligands were used at EC80 concentration levels. The list of bitter ligands utilized and the tested ligand concentrations are contained in Table 5 of this example.
Relating to the foregoing, FIG. 5 contains experimental results wherein Compound C was tested with different agonist compounds. The inhibition activity is represented by the reduction of receptor activity in the presence of Compound C. […] These 13 hT2Rs are hT2R3, 7, 10, 14, 16, 44, 51, 55, 61, 63, 64, 65, and 71.

[4] = system: hT2R44; experiment: hT2R panel inhibition, transient HEK293 G16g44, agonist Denatonium 0.5 μM; type: cell-based, human; details: compound at 25 μM; receptor activated to EC80 with the corresponding agonist
Outline: as §1

[5] = target: hT2R7 (Homo sapiens (Human), UniProt Q9NYW3); experiment: hT2R panel inhibition, transient HEK293 G16g44, agonist Chloroquine pH6.5 10 mM; type: cell-based; details: HEK293, compound at 25 μM; receptor activated to EC80 with the corresponding agonist; read-out: screening result against bitter receptor 7
Outline: as §1

[6] = system: hT2R55; experiment: hT2R panel inhibition, transient HEK293 G16g44, agonist Cinchonine 150 μM; type: cell-based, human; details: compound at 25 μM; receptor activated to EC80 with the corresponding agonist
Outline: as §1

[7] = system: hT2R63; experiment: hT2R panel inhibition, transient HEK293 G16g44, agonist Caffeine 1 mM or Andrographolide 100 μM; type: cell-based, human; details: compound at 25 μM; receptor activated to EC80 with the corresponding agonist
Outline: as §1

[8] = target: T1, hT2R14 (Homo sapiens (Human), UniProt Q9NYV8); experiment: hT2R14 antagonist high-throughput FLIPR assay, stable cell line with G16g44, agonist aristolochic acid; type: cell-based; details: read-out: IC50 on hT2R14 bitter receptor
Outline: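 Compounds were co-applied with 3 μM aristolochic acid, a dose set to reach 70-80% of maximal hT2R14 activation. Read-out was FLIPR fluorescence in a stable HEK293 line co-expressing hT2R14 and G16g44.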

[9] = target: hT2R71 (Homo sapiens (Human), UniProt P59536); experiment: hT2R panel inhibition, transient HEK293 G16g44, agonist Picric Acid 10 μM; type: cell-based; details: HEK293, compound at 25 μM; receptor activated to EC80 with the corresponding agonist; read-out: screening result against bitter receptor 71
Outline: as §1

[10] = target: hT2R16 (Homo sapiens (Human), UniProt Q9NYV7); experiment: hT2R panel inhibition, transient HEK293 G16g44, agonist Salicin 1 mM; type: cell-based; details: HEK293, compound at 25 μM; receptor activated to EC80 with the corresponding agonist; read-out: screening result against bitter receptor 16
Outline: as §1

[11] = target: T1, hT2R14; experiment: hT2R panel inhibition, transient HEK293 G16g44, agonist Aristolochic Acid 2 μM; type: cell-based; details: HEK293, compound at 25 μM; receptor activated to EC80 with the corresponding agonist; read-out: screening result against bitter receptor 14
Outline: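 Agonist challenge was at EC80, with 0.5 mM andrographolide on hT2R8 and 2 μM aristolochic acid on hT2R14. Inhibition was measured in functional assays in HEK293 cells that stably carry the promiscuous G protein G16g44 and were transiently transfected with the individual receptor.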

[12] = target: hT2R5 (Homo sapiens (Human), UniProt Q9NYW4); experiment: hT2R panel inhibition, transient HEK293 G16g44, agonist Picoline 10 mM; type: cell-based; details: HEK293, compound at 25 μM; receptor activated to EC80 with the corresponding agonist; read-out: screening result against bitter receptor 5
Outline: as §1

[13] = system: hT2R65; experiment: hT2R panel inhibition, transient HEK293 G16g44, agonist Oleuropein 1 mM; type: cell-based, human; details: compound at 25 μM; receptor activated to EC80 with the corresponding agonist
Outline: as §1

[14] = target: hT2R3 (Homo sapiens (Human), UniProt Q9NYW6); experiment: hT2R panel inhibition, transient HEK293 G16g44, agonist Chloroquine pH6.5 50 μM; type: cell-based; details: HEK293, compound at 25 μM; receptor activated to EC80 with the corresponding agonist; read-out: screening result against bitter receptor 3
Outline: as §1

[15] = system: hT2R54; experiment: hT2R panel inhibition, transient HEK293 G16g44, agonist Ranitidine 5 mM; type: cell-based, human; details: compound at 25 μM; receptor activated to EC80 with the corresponding agonist
Outline: as §1

[16] = target: hT2R10 (Homo sapiens (Human), UniProt Q9NYW0); experiment: hT2R panel inhibition, transient HEK293 G16g44, agonist Strychnine 50 μM; type: cell-based; details: HEK293, read-out: screening result against bitter receptor 10, compound at 25 μM; receptor activated to EC80 with the corresponding agonist
[17] = target: hT2R51 (Homo sapiens (Human), UniProt P59533); experiment: hT2R panel inhibition, transient HEK293 G16g44, agonist Prop 2.5 μM; type: cell-based; details: HEK293, compound at 25 μM; receptor activated to EC80 with the corresponding agonist; read-out: screening result against bitter receptor 51
Outline: as §1

hT2R64, sequence (P59538 whole entry): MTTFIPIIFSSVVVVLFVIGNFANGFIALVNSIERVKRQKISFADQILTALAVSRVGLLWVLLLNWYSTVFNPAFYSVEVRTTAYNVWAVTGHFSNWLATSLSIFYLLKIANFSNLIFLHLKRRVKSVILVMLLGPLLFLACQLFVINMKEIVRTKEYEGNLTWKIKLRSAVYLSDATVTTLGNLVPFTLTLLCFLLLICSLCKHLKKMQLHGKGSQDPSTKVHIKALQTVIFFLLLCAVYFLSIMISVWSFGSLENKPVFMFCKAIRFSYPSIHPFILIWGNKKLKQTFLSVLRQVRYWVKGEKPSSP
hT2R71, sequence (P59536 whole entry): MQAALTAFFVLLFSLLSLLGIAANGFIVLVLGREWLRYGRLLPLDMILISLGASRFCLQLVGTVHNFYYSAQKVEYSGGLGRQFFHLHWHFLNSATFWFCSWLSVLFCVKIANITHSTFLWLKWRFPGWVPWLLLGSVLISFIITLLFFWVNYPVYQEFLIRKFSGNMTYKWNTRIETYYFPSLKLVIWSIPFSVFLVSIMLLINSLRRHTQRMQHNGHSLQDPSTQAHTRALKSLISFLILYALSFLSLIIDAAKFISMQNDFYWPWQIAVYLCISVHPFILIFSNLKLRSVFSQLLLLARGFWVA
hT2R61, sequence (P59537 whole entry): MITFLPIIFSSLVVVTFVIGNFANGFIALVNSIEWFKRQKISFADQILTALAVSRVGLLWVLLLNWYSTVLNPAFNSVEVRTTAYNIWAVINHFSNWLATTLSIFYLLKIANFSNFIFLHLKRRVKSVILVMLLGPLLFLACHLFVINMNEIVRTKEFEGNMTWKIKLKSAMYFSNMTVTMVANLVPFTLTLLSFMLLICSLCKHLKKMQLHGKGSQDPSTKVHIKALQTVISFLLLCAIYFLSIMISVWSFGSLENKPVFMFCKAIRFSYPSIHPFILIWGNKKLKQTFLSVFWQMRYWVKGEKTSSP
hT2R4, sequence (Q9NYW5 whole entry): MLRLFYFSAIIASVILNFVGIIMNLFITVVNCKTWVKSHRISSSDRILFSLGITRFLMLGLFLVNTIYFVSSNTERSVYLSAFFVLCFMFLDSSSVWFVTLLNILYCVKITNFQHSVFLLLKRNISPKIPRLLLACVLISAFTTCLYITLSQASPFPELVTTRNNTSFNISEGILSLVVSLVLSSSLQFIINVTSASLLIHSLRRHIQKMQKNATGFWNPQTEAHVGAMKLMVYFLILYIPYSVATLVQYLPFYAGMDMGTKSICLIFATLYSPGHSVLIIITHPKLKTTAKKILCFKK
hT2R7, sequence (Q9NYW3 whole entry): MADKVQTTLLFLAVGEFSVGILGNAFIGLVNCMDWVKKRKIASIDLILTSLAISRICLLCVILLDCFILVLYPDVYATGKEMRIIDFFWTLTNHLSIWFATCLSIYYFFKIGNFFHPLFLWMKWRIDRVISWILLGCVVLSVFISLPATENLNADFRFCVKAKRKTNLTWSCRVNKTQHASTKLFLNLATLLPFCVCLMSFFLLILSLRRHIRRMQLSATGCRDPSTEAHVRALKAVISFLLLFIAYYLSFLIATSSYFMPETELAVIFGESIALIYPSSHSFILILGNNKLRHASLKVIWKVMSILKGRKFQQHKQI
T1 sequence (Q9NYV8 whole entry): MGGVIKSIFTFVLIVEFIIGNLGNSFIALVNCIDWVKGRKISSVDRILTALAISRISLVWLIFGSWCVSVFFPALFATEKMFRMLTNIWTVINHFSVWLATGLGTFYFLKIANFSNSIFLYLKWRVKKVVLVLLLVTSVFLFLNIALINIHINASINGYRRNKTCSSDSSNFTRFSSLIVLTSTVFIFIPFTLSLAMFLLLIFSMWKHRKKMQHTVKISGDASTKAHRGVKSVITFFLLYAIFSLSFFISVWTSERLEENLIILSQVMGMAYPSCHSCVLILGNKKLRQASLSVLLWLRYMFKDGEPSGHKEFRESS
hT2R16, sequence (Q9NYV7 whole entry): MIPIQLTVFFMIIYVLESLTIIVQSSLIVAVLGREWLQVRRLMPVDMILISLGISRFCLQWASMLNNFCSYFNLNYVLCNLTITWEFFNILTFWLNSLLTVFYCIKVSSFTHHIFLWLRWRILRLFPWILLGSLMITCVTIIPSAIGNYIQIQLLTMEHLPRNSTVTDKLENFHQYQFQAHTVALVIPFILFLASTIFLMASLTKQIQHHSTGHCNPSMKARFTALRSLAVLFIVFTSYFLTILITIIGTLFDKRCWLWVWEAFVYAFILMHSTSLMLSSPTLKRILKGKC
hT2R5, sequence (Q9NYW4 whole entry): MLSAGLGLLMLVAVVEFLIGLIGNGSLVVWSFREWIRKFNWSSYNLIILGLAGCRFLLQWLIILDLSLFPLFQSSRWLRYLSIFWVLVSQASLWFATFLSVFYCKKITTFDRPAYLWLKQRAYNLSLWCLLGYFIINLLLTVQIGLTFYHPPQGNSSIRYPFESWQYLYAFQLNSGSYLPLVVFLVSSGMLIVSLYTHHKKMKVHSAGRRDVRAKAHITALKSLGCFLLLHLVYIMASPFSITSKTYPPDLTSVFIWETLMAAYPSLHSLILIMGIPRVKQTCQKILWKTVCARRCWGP
hT2R3, sequence (Q9NYW6 whole entry): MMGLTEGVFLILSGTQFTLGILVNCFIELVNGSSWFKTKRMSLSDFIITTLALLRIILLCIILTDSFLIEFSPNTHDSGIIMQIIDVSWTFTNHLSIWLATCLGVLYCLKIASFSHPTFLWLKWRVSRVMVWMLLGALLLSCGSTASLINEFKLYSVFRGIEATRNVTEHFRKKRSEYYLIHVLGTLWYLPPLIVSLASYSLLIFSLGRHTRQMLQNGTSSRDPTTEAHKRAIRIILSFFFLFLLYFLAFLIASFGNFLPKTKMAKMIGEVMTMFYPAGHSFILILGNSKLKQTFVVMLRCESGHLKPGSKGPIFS
hT2R51, sequence (P59533 whole entry): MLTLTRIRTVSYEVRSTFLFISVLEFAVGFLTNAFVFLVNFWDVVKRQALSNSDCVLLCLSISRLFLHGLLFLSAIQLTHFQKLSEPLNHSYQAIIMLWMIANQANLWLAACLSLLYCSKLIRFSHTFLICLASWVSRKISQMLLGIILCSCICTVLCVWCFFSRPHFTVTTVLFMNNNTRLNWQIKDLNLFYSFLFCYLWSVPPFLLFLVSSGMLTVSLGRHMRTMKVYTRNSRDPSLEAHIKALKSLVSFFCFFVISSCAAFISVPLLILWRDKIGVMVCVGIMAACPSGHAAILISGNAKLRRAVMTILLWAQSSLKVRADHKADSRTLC
hT2R10, sequence (Q9NYW0 whole entry): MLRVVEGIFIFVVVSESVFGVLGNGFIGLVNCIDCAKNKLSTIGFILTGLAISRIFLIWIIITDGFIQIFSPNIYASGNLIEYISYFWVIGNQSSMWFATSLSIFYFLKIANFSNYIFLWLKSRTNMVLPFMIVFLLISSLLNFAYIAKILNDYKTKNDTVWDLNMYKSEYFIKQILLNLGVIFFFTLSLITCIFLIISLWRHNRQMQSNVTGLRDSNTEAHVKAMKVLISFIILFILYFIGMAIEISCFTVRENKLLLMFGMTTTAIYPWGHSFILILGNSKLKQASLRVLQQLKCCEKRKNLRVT

SMILES | inhibition at 25 µM [1] | inhibition at 25 µM [2] | inhibition at 25 µM [3] | screening result against bitter receptor 44 [4] | inhibition at 25 µM [5] | screening result against bitter receptor 55 [6] | screening result against bitter receptor 63 [7] | IC50 [8] | inhibition at 25 µM [9] | inhibition at 25 µM [10] | inhibition at 25 µM [11] | inhibition at 25 µM [12] | screening result against bitter receptor 65 [13] | inhibition at 25 µM [14] | screening result against bitter receptor 54 [15] | inhibition at 25 µM [16] | inhibition at 25 µM [17]
O=C(O)C1CCC(CN(Cc2ccc(F)cc2)S(=O)(=O)Cc2ccccc2)CC1 (stereo not drawn) [Example 5-24, 4-((N-(4-fluorobenzyl)-1-phenylmethylsulfonamido)methyl)-cyclohexanecarboxylic acid] | 60 to 80% | > 80% | 20 to 40% | + (20% to 40% inhibition = +) | 20 to 40% | ++ (40% to 60% inhibition = ++) | + (20% to 40% inhibition = +) | 9570 nM | 20 to 40% |  |  |  |  |  |  |  | 
COc1ccc(CN(Cc2ccc(NC(C)=O)cc2)S(=O)(=O)c2ccc(C(=O)O)cc2)cc1 [Example 5-26, 4-(N-(4-acetamidobenzyl)-N-(4-methoxybenzyl)sulfamoyl)benzoic acid] | 60 to 80% | 20 to 40% | 40 to 60% | + (20% to 40% inhibition = +) | 20 to 40% |  | +++ (60% to 80% inhibition = +++) |  | 20 to 40% |  |  |  |  |  |  |  | 
Cc1ccc(S(=O)(=O)N(Cc2ccc(F)cc2)Cc2ccc(C(=O)O)cc2)cc1 [Example 5-37, 4-((N-(4-fluorobenzyl)-4-methylphenylsulfonamido)methyl)benzoic acid] | 60 to 80% |  | 60 to 80% |  | 20 to 40% | ++++ (80% or greater inhibition = ++++) | + (20% to 40% inhibition = +) | 54 nM |  | 20 to 40% | > 80% | 20 to 40% | ++ (40% to 60% inhibition = ++) | 20 to 40% |  |  | 
COc1ccc(CN(Cc2ccc(OC)c(OC)c2)S(=O)(=O)c2ccc(C(=O)O)cc2)cc1 [Example 5-40, 4-(N-(3,4-dimethoxybenzyl)-N-(4-methoxybenzyl)sulfamoyl)benzoic acid] | 60 to 80% | > 80% | 20 to 40% | +++ (60% to 80% inhibition = +++) |  | ++++ (80% or greater inhibition = ++++) | ++++ (80% or greater inhibition = ++++) | 1470 nM | 40 to 60% | 20 to 40% | > 80% | 20 to 40% |  | 20 to 40% | + (20% to 40% inhibition = +) | 40 to 60% | 20 to 40%
